Test results taken from a melting point compilation (Tetko et al.; mined from patent text by program, amines drawn as free bases though some values may be those of a salt).

Compound | melting point [°C]
Cc1ccc(-n2c(-c3sc(Nc4ccc(Cl)cc4)nc3C)nc3ccccc3c2=O)cc1 | > 275
CCOC(=O)C=Cc1cc(-c2ccc3c(c2)C(C)(C)CCC3(C)C)cs1 | 82 to 84
O=C(O)COc1ccc(CCNS(=O)(=O)c2ccccc2)cc1 | 157 to 158
CCCn1cnc(NC)c1C(=O)NCCCCCCOc1ccc(Cl)cc1 | 66 to 67
O=C(c1sccc1-n1cccc1)N1CCCCC1 | 126
C(=C\c1cn(-c2ccccc2)nc1OCc1ccccc1)/c1cscn1 | 101 to 102
N#Cc1ccc2oc(CCc3ccc(CO)cc3)cc2c1 | 72 to 73
O=C(O)CSCn1cnnn1 | 98 to 101
CCCCCC1(C(=O)O)CC2=C(C1)C(C)(C)CCC2(C)C | 57 to 58
CC(C)c1[nH]c(Cl)c(C#N)c1SC#N | 159
CCOC(=O)c1c(CCc2ccc(OC)cc2)oc2ccc(C#N)cc12 | 135 to 139
OCCCc1ccc(OCCN2CCOCC2)cc1Oc1ncc(C(F)(F)F)cc1Cl | 69.2 to 70.4
CC1=C(CCN(O)C(N)=O)/C(=C/c2ccc(S(C)(=O)=O)cc2)c2ccccc21 | 140 to 142
CCOC(=O)Cc1cc(O)ccc1F | 85 to 87
CCOC(=O)N1CCc2nc3cccc(Cl)c3c(C)c2CC1 | 138
CCCn1c(=O)c2c(ncn2CCCCC(C)=O)n(C)c1=O | 76 to 78
Cc1c(C=NO)c2ccccc2n1-c1ccc(OCc2ccccc2)cc1 | 171 to 173
Nc1cc(Cl)c(Sc2cccc3cnccc23)cc1N | 200 to 203
CCN(CC)c1ccc(S(=O)(=O)N2CCCC2=O)cc1 | 128 to 130
CC(=O)CCCn1c(=O)c2c(ncn2C)n(C)c1=O | 109 to 111
COCOc1c(NC(=O)NN)cc(OC)cc1C(C)(C)C | 132 to 134
CCOP(=O)(OCC)C(Nc1nc2ccccc2s1)P(=O)(OCC)OCC | 165 to 167
C=CCc1cc2ccc(=O)oc2c(OC)c1OC(C)=O | 101 to 102
CCCNc1nc(-c2ccccc2)c(-c2ccc(=O)n(C(C)C)n2)s1 | 165 to 166
CC(C)CC(C(=O)O)c1cc(OCC2CC2)c(-c2ccc(C(F)(F)F)cc2)cc1F (stereo not drawn) | 110 to 111
Oc1ccc2c(c1CNc1ccc(F)cc1F)CCCO2 | 120 to 121

Compound | melting point [°C]
NC(=O)OC(=O)C(Cl)(Cl)Cl | 183 to 184
COC(=O)Cc1sc(=O)[nH]c1COc1ccccc1 | 103
O=C(O)COc1ccc(-c2coc3cc(OCC(=O)O)ccc3c2=O)cc1 | 270 to 272
O=CCOc1cccc(C(=O)O)c1 | 120 to 130
CCCN1N=C2C(=Cc3ccccc3)CS(=O)CC2C1c1ccccc1 (stereo not drawn) | 164 to 166
C=CC[C@@H](C(=O)N[C@H](C(=O)OCc1ccccc1)C(C)(C)C)[C@@H]1OC(C)(C)OC1=O | 67 to 70
COc1ccc(N2C(=O)N(C(C)CO)c3nc(Nc4ccccc4)ncc3C2C)cc1 (stereo not drawn) | 165 to 180
OCCc1cc2c(cc1Cc1ccccc1)OCO2 | 64 to 65
Oc1ccc2nc(-n3ccnc3)nc(NCc3ccccc3)c2c1 | 230
Cc1ccccc1-c1cc2ncccc2c(=O)n1C | 104 to 106
O=C1c2ccccc2C(=O)N1CCSc1ncccn1 | 149 to 150
N=C(Cc1nc2cnc3ccc(Cl)cc3c2n1-c1ccccc1Cl)NO | 114
CS(=O)(=O)c1ccc(-n2nc(C(F)(F)F)nc2-c2ccc(Br)cc2)nc1 | 143 to 145
CCCCCCCN(CCN1CCN(CCSc2nc3ccccc3o2)CC1)C(=O)Nc1c(C(C)C)cccc1C(C)C | 110 to 111
CCOC(=O)CC(C)Sc1nnc(S)s1 (stereo not drawn) | 107 to 108
CC(=O)Nc1cc2c(cc1[N+](=O)[O-])[C@@H](O)[C@H](Br)C(C)(C)O2 (relative stereo) | 205 to 206
Cc1csc2[nH]c(=O)nc(-c3ccccc3F)c12 | 258 to 261
COc1cc2nc(N3CCc4c(CO)cccc4C3)[nH]c(=O)c2cc1OC | 200 to 206
CC(=O)OCC1CC2c3cccc4c3C(CC2N(C)C1)CN4C(C)=O (stereo not drawn) | 172 to 177
Cc1cc(O)n2nc(CS)nc2n1 | 215
O=[N+]([O-])c1c(O)c(O)cc2ccccc12 | 141 to 143
CS(=O)(=O)c1ccc(-n2nc(C(F)(F)F)cc2-c2ccc(-c3cscn3)c(F)c2)cc1F | 156 to 158
Cc1ccc(CCCNC(=O)Cc2ccc(OCCN)c([N+](=O)[O-])c2)cc1C | 98
CN1C(c2ccc(Br)cc2)C2C(=O)N(Cc3ccc4c(c3)OCO4)C(=O)C2C1(C)C (stereo not drawn) | 109 to 111
O=c1[nH]c(=O)c2cc(S(=O)(=O)O)ccc2[nH]1 | > 300
COc1cc(C=O)ccc1OCc1coc(-c2ccccc2)n1 | 119 to 120

Compound | melting point [°C]
CCCCCCCCCCOc1ccc(CC(C)NCC(O)c2cccc(Cl)c2)cc1 (stereo not drawn) | 59 to 61
CN1C(=O)CC[C@]2(C)c3ccc(-c4c(F)c(F)c(F)c(F)c4F)cc3CC[C@@H]12 | 92 to 100
Oc1ccc2ccc(C(O)C(F)(F)F)cc2c1 (stereo not drawn) | 174 to 175
O=C(Cc1ccccc1)NCc1cccc2c1C(=O)N(C1CCC(=O)NC1=O)C2=O (stereo not drawn) | 128 to 130
Nc1nn(-c2ccccc2)cc1CO | 127 to 128
CC1NN2C=CC=NC2C1C#N (stereo not drawn) | 170 to 172
Cc1nc(N2CCN(Cc3ccncc3)C2=O)sc1C(=O)NCc1cccnc1 | 233 to 235
O=C(O)C(=O)CC(=O)c1cccn1Cc1ccc2ccccc2c1 | 160 to 162
Cc1ccc(N2C(=O)C(O)=C(C(=O)c3ccc(C(C)C)cc3)C2c2ccc(OC3CCOCC3)cc2)nn1 (stereo not drawn) | 275
CCC(CC)Cn1c(=O)c(=O)[nH]c2cc([N+](=O)[O-])c(-n3cccc3)cc21 | 154 to 155
O=C1c2ccccc2CCC1c1ccccc1 (stereo not drawn) | 69
CCCCn1c(O)c(N=Nc2ccc(S(=O)(=O)N(CC(C)O)CC(C)O)cc2)c(C)c(C#N)c1=O (stereo not drawn) | 189 to 190
O=C(CBr)c1cccn1S(=O)(=O)c1ccccc1 | 89 to 91
CCCCCc1cnc(-c2ccc(-c3ccc(C#N)cc3)cc2)nc1 | 124
CC(=O)N(O)C(C)c1ccc(-c2ccc(OCc3nc4ccccc4s3)cc2)cc1 (stereo not drawn) | 197 to 199
NC(=O)Cc1csc(-c2cccc(Br)c2)n1 | 150 to 152
O=C(O)CCc1conc1-c1ccc(-c2ccccc2)cc1 | 169 to 170
CC(C)OC(=O)C1=C2SCC(=CC(=O)N3CCCCC3)N2CC1 | 128 to 130
OC(COc1ccc(-c2cc[nH]n2)cc1)CN1CCN(c2ccc(Cl)cc2)CC1 (stereo not drawn) | 211 to 212
COc1ccc2oc3cc(C#N)ccc3c(=O)c2c1 | 254 to 255
COc1ccc(-c2ccc(C(=O)O)c(OC)c2)cc1OC | 134 to 135
O=C(O)c1cccc(OCc2ccc(Cl)cc2Cl)c1OCc1ccccc1 | 151 to 153
O=C(NCc1ccc2c(c1)OCO2)c1ccc2[nH]c(=O)n(Cc3cccs3)c(=O)c2c1 | 270
COc1ccc(N=Nc2ccc(O)c(C(=O)Nc3ccc4cn[nH]c4c3)c2)cc1 | 279
CC(C)c1c(C=C(Cl)Cl)c(-c2ccc(F)cc2)n2c1CCCC2 | 97 to 98
CCc1oc(C)cc(=O)c1C(=O)Nc1ccccc1 | 154 to 156

Compound | melting point [°C]
Clc1ccc(Nc2nc3ccccc3c3[nH]c(C4CCC4)nc23)cc1Cl | 131 to 134
C=CC(=O)OCCCCCCOc1ccc(-c2cccc(F)c2F)cc1 | 45.6 to 46.8
CC[C@H](C)[C@H](NC(=O)Nc1cccc(C)c1)C(=O)N[C@H](CO)Cc1c[nH]c2ccccc12 | 185 to 186
N#CCCc1cccc2ccn(Cc3cccc(/C=C/c4ccc5ccc(Cl)cc5n4)c3)c12 | 151
COC(=O)c1ccccc1S(=O)(=O)NC(=O)Nc1nc(C)c2ccccc2n1 | 182 to 183
COc1ccc2c(c1)nc(C)n2-c1ccccc1 | 88 to 90
COc1nc(SCc2ccc(F)cc2)cnc1NS(=O)(=O)c1cccc(Cl)c1Cl | 119 to 120
C#CCOc1cc(-n2nc(CC)c(CC)c2CC)c(F)cc1Cl | 62 to 65
COCCN1CCc2ccc(Nc3ncc(Cl)c(Nc4ccccc4S(=O)(=O)N4CCC(O)C4)n3)cc2CC1 (stereo not drawn) | 120 to 128
O=C(O)c1cnc2oc(C(=O)O)cc2c1 | > 315
COc1cn(-c2ccncc2)nc(-c2ccnn2-c2ccccc2)c1=O | 195 to 197
O=c1c(-c2cccc(F)c2)c(CNc2ncnc3[nH]cnc23)oc2ccccc12 | 211 to 214
C[C@@H]1CN(CC(=O)Nc2nc3ccccc3n2C)C[C@H](C)N1c1ncnc2sccc12 | 200
Cn1nc(C(=O)NCc2ccc(Cl)cc2)c(=O)c2cc(I)ccc21 | 194 to 195
O=C(CO[C@H]1CC[C@@H](CCNS(=O)(=O)c2ccc(Cl)cc2)CC1)Nc1nnn[nH]1 | 191 to 192
CCOc1cc(-c2cc(C(F)F)n3ncc(C(=O)Nc4cccc(S(=O)(=O)N5CCOCC5)c4)c3n2)ccc1C(F)(F)F | 231
CCOC(=O)c1c(C(C)C)nc(-c2ccccc2)c(-c2ccccc2)c1-c1ccc(F)cc1 | 135 to 136
Cc1cc(OC(=O)C(C)(C)C)c(C)c(C)c1OCc1ccccc1 | 50 to 53
O=C(O)COc1ccc(N2CC(=O)NS2(=O)=O)c(O)c1 | 185 to 188
O=C1C(c2ccccc2)=C(c2ccccc2)C(=O)N1CCc1ccccc1 | 164 to 165
O=C(O)c1cc(Cl)cc(Cl)c1OC1CCOC1=O (stereo not drawn) | 117 to 120
COC(=O)c1nc(-c2ccc(Cl)cc2)nc(NCc2ccco2)c1Cl | 132 to 134
COc1ccc(CC(=O)Nc2cccc3c2C(=O)c2c-3n[nH]c2-c2ccc(OC)cc2)cc1 | 280
CC(=O)c1csc2ccc(F)cc12 | 90 to 92
O=S(=O)(CCO)c1ccccc1 | 87 to 89
